Source: patent US12539311B2, “Short-acting heparin-based anticoagulant compounds and methods” (The University of North Carolina at Chapel Hill, priority 2017, dated 2026)
Read-outs that look alike come from different tables or passages of the source. Blank lines part the entries; values can stand above or below the compound they belong to.

Legend:
[1] = biological target: T1, antithrombin (AT) (Homo sapiens, UniProt P01008); assay: AT-binding affinity analysis using isothermal titration calorimetry (ITC)
[2] = tested on: FXa; assay: Determination of anti-FXa effect in vivo; set-up: species or system Lewis rats; conditions: rat, intravenous; for persistence of anti-FXa effect in vivo: blood drawn 0.5-8 hours
Procedure: (§1) All studies were performed under an Institutional Animal Care and Use Committee (IACUC)-approved protocol at the University of North Carolina, following Public Health Service guidelines for laboratory animal care and use. Sixteen 400-g Lewis rats were equally divided into four groups. […] Blood was then drawn at specified time points (0.5, 1, 2, 4, 8 hours) after the compounds had been administered, with one sample taken just before administration. 0.8 mL of blood was drawn from the contralateral femoral/saphenous vein into 150 mM citrate at 0.5, 1, 2, 4 and 8 hours following injection of the compounds, with one sample drawn immediately prior to injection. The samples were centrifuged to obtain approximately 400 μL of plasma. The blood samples were subjected to FXa activity analysis. Saline was given periodically subcutaneously to maintain fluid volume.

[3] = Clearance of oligosaccharides from the drug-treated animals (plasma concentration against time); format: in vivo, Lewis rats
Procedure: as §1
Using a calibration curve generated for each compound, the concentration of compound in the reaction mixture was read off for each corresponding FXa activity percentage. The average plasma concentration and standard deviation between the 4 rats in each group were calculated for each time point; these values were used to plot a graph of plasma concentration against time.

[4] = biological target: T2, platelet factor 4 (Homo sapiens, UniProt P02776); assay: Risk of heparin-induced thrombocytopenia (HIT) / binding to platelet factor 4; conditions: expected from size (smaller than 12-mers do not bind platelet factor 4)
T2 sequence (P02776 32-101): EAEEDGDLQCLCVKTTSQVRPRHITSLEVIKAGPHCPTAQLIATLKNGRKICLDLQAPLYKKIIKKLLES

[5] = biological target: T1, antithrombin (AT); conditions: affinity coelectrophoresis, reported in a previous publication; read-out: Binding affinity (Kd) to AT; cited from earlier work
[6] = biological target: T1, antithrombin (AT); conditions: reported in a previous publication, method not given, cited from earlier work

T1 sequence (P01008 33-464): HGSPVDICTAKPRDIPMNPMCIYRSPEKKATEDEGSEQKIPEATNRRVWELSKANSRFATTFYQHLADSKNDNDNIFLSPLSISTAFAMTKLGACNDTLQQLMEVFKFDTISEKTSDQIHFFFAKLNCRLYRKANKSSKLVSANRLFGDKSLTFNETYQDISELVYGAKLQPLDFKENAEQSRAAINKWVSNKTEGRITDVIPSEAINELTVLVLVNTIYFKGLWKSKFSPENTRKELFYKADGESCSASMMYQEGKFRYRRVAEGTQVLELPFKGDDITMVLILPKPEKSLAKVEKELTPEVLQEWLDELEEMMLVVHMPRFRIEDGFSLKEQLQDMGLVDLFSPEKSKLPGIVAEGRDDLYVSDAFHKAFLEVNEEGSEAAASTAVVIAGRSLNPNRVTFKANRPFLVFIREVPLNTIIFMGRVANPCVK

Binding affinity (Kd) to AT ([1]; ITC): No binding^c
Compound: O=C(O)C1OC(OC2C(CO)OC(OC3C(C(=O)O)OC(OC4C(CO)OC(OC5C(C(=O)O)OC(OC6C(CO)OC(OC7C(C(=O)O)OC(Oc8ccc([N+](=O)[O-])cc8)C(O)C7O)C(NS(=O)(=O)O)C6O)C(OS(=O)(=O)O)C5O)C(NS(=O)(=O)O)C4OS(=O)(=O)O)C(OS(=O)(=O)O)C3O)C(NS(=O)(=O)O)C2O)C(O)C(O)C1OC1OC(CO)C(O)C(O)C1NS(=O)(=O)O (centres unmarked) [Comp 4]

Kd ([1]; ITC): 5.1 ± 1.4 nM
binding to AT (in words) ([1]; listed as Compound 5): binds to AT
binding to AT (in words) ([1]; listed as compound 5): binds to AT tightly
clearance rate faster than that of fondaparinux ([3]; in a rat or mouse model): at least 50%
risk of HIT [4]: very low risk of HIT
Compound: O=C(O)C1OC(OC2C(COS(=O)(=O)O)OC(OC3C(C(=O)O)OC(OC4C(COS(=O)(=O)O)OC(OC5C(C(=O)O)OC(OC6C(COS(=O)(=O)O)OC(OC7C(C(=O)O)OC(Oc8ccc([N+](=O)[O-])cc8)C(O)C7O)C(NS(=O)(=O)O)C6O)C(OS(=O)(=O)O)C5O)C(NS(=O)(=O)O)C4OS(=O)(=O)O)C(OS(=O)(=O)O)C3O)C(NS(=O)(=O)O)C2O)C(O)C(O)C1OC1OC(COS(=O)(=O)O)C(O)C(O)C1NS(=O)(=O)O (centres unmarked) [Comp 5]
persistence of anti-FXa effect in vivo [2]: diminished after 4 hours
anti-FXa potency in vivo ([2]; within 30 min after administration): comparable anti-FXa potency to that of fondaparinux and compound 11
clearance in vivo (in words) ([3]; rat, compared with fondaparinux and compound 11): cleared faster from the animal in the first 2 hours

Second part, the compound before the results:

Compound: O=C(O)C1OC(OC2C(COS(=O)(=O)O)OC(OC3C(C(=O)O)OC(OC4C(COS(=O)(=O)O)OC(OC5C(C(=O)O)OC(Oc6ccc([N+](=O)[O-])cc6)C(O)C5O)C(NS(=O)(=O)O)C4OS(=O)(=O)O)C(OS(=O)(=O)O)C3O)C(NS(=O)(=O)O)C2O)C(O)C(O)C1OC1OC(COS(=O)(=O)O)C(O)C(O)C1NS(=O)(=O)O (centres unmarked) [Comp 2, GlcNS6S-GlcA-GlcNS6S-IdoA2S-GlcNS3S6S-GlcA-pNP]
Binding affinity (Kd) to AT ([1]; ITC): No binding

Compound: CC(=O)NC1C(OC2C(C(=O)O)OC(OC3C(COS(=O)(=O)O)OC(OC4C(C(=O)O)OC(OC5C(COS(=O)(=O)O)OC(OC6C(C(=O)O)OC(OC7C(COS(=O)(=O)O)OC(OC8C(C(=O)O)OC(Oc9ccc([N+](=O)[O-])cc9)C(O)C8O)C(NS(=O)(=O)O)C7O)C(OS(=O)(=O)O)C6O)C(NS(=O)(=O)O)C5O)C(OS(=O)(=O)O)C4O)C(NS(=O)(=O)O)C3OS(=O)(=O)O)C(O)C2O)OC(COS(=O)(=O)O)C(O)C1O (centres unmarked) [Comp 11, reference compound]
persistence of anti-FXa effect in vivo [2]: persisted after 8 hours
Kd [5]: 8 ± 3 nM

Compound: O=C(O)C1OC(OC2C(COS(=O)(=O)O)OC(OC3C(C(=O)O)OC(OC4C(COS(=O)(=O)O)OC(OC5C(C(=O)O)OC(Oc6ccc([N+](=O)[O-])cc6)C(O)C5O)C(NS(=O)(=O)O)C4O)C(OS(=O)(=O)O)C3O)C(NS(=O)(=O)O)C2OS(=O)(=O)O)C(O)C(O)C1OC1OC(COS(=O)(=O)O)C(O)C(O)C1NS(=O)(=O)O (centres unmarked) [GlcA2S-containing 6-mer, GlcNS6S-GlcA-GlcNS3S6S-GlcA2S-GlcNS6S-GlcA-pNP]
Binding affinity (Kd) to AT [6]: No binding^d

Compound: O=C(O)C1OC(OC2C(COS(=O)(=O)O)OC(OC3C(C(=O)O)OC(OC4C(COS(=O)(=O)O)OC(OC5C(C(=O)O)OC(Oc6ccc([N+](=O)[O-])cc6)C(O)C5O)C(NS(=O)(=O)O)C4O)C(O)C3O)C(NS(=O)(=O)O)C2OS(=O)(=O)O)C(O)C(O)C1OC1OC(COS(=O)(=O)O)C(O)C(O)C1NS(=O)(=O)O (centres unmarked) [IdoA-containing 6-mer]
Kd ([6]; read-out: Binding affinity (Kd) to AT): 32.6 ± 5.3 nM
